This is an account of results in ChEMBL document CHEMBL3507680, “University of Dundee, Gates Library screen for HepG2 cell viability”.

The data set is described as follows: Human HepG2 cell viability assay in 384 well format. It counts as toxicity, cell-based. Set-up: dose 125 nL, time 70.5 hour; concentration not given beside the values. The conditions noted are these: HepG2 cells, read-out: Inhibition.
In the case of `COC[C@]12COC[C@H]1CN(C(=O)c1ccc(F)cc1C)C2`, the cytotoxicity at 70.5 h turned out to be 0.0363%.
Turning to `O=C(NCC(O)c1ccc(F)c(F)c1)c1ccccc1F` (centres undefined), the cytotoxicity at 70.5 h is -9.96%.
`CCC(CC)C(=O)n1ccn(S(=O)(=O)c2ccc(C)cc2)c1=O`: the cytotoxicity at 70.5 h amounted to 15.1%.
On to `Cc1[nH]ccc1C(=O)N(C)C1CC(=O)N(Cc2ccccc2)C1=O` (centres undefined), for which the cytotoxicity at 70.5 h was -2.82%.
In the case of `Cc1nccn1Cc1nnc(C2CCCN(Cc3cccnc3)C2)n1C` (centres undefined), the cytotoxicity at 70.5 h turned out to be 5.17%.
Consider `Clc1ccc(N2CCC(C3CCN(Cc4cccnc4)CC3)C2)nc1` (centres undefined), for which the cytotoxicity at 70.5 h is -8.52%.
For `Cc1noc(C)c1NS(=O)(=O)c1cc(Cl)c(Cl)c(C(=O)O)c1`, the cytotoxicity at 70.5 h is -9.2%.
In the case of `Cc1nnc(N2CCc3cnc(C(C)C)nc3C2)c(C#N)c1C`, the cytotoxicity at 70.5 h was found to be 1.1%.
As to `CN(C)CCN(C)C[C@@H]1CN(Cc2cccc(O)c2)C[C@@H]1CO`, the cytotoxicity at 70.5 h is -3.65%.
As for `O=C(c1ccc2c(c1)OCCO2)N1CCCC(n2ccnc2)C1` (centres undefined), the cytotoxicity at 70.5 h was -4.86%.
Regarding `CC(=O)N1CCO[C@@H]2CN(S(=O)(=O)c3ccccc3F)C[C@@H]2C1`, the cytotoxicity at 70.5 h was -10.2%.
Turning to `O=S(=O)(Nc1cnn(C2CCOCC2)c1)c1ccc2c(c1)CCO2`, the cytotoxicity at 70.5 h is -5.29%.
The figure for `CCC(C)NC(=O)c1ccc(CNC(=O)CC(C)(C)C)cc1` (centres undefined) is -9.82%; for `COc1cccc2c1N(S(=O)(=O)c1cc(C(=O)O)cs1)CCC2` it is -6.55%.
As to `N#Cc1ccc(NC(=O)C2CSCN2)cc1` (centres undefined), the cytotoxicity at 70.5 h was -6.81%.
With `COCCN1Cc2nccn2CC(COCc2csc(C)n2)C1` (centres undefined), the cytotoxicity at 70.5 h is -1.7%.
In the case of `CCOc1cccc(C(=O)NCCC(=O)Nc2ccncc2)c1`, the cytotoxicity at 70.5 h was -19.4%.
In the case of `COc1cccc(S(=O)(=O)CCN2CCCC2c2ccc[nH]2)c1` (centres undefined), the cytotoxicity at 70.5 h is -16.8%.
For `O=C(C1CCCO1)N1CCC2(CC1)COCCN(Cc1ccncc1)C2` (centres undefined), the cytotoxicity at 70.5 h is -9.52%.
With `CCc1c(C)nn(CCNC(=O)c2cc(C3CC3)n[nH]2)c1C`, the cytotoxicity at 70.5 h was -2.41%.
Regarding `CCc1nc(CNC(C)c2cccc(N3CCCC3=O)c2)cs1` (centres undefined), the cytotoxicity at 70.5 h is -12.3%.
As for `Fc1ccccc1CN1C[C@@H]2OCCN(c3ncccn3)[C@@H]2C1`, the cytotoxicity at 70.5 h is -13.2%.
Then `CCC(C(=O)NCCc1coc(-c2ccc(C)cc2)n1)N(C)C` (centres undefined), with 3.11%; and `Cc1cc(CCC(=O)N(C)C)nc(C2CCCCN2)n1` (centres undefined), with -5.77%.
Consider `Cc1c(CNCCCOc2cccnc2)c2ccccc2n1CC(N)=O`, for which the cytotoxicity at 70.5 h stood at 5.45%.
As for `O=C(c1ccoc1)N1CC[C@@H]2O[C@@H](COCCN3CCCC3)CC[C@@H]21`, the cytotoxicity at 70.5 h was -12.6%.
Regarding `CC(=O)N1CC(=O)N(c2ccsc2)CC12CCN(Cc1ccoc1)C2` (centres undefined), the cytotoxicity at 70.5 h was -11.1%.
Turning to `CC(C)c1nc(CN2CCCCC2Cn2cncn2)cs1` (centres undefined), the cytotoxicity at 70.5 h was 16.2%.
`CC(C)NC(=O)C[C@@H]1CCNC[C@@H]1Cc1cc(-c2ccccc2)on1`: the cytotoxicity at 70.5 h is -1.73%.
Then `Cc1ccc(N2CCCN(CC3CC3)C(C(C)C)C2)nn1` (centres undefined), with -14.3%; and `CS(=O)(=O)NCC1(O)CCCN(C(=O)CCn2cc(Cl)cn2)CC1` (centres undefined), with -1.38%; and `O=C(NCc1cccc(F)c1F)c1cc(CN2CCCC(O)C2)on1` (centres undefined), with 4.85%.
Consider `CN(Cc1noc2c1CCCC2)C(=O)Nc1ccc2oc(=O)n(C)c2c1`, for which the cytotoxicity at 70.5 h worked out at 20.6%.
Regarding `COC1(CNC(=O)c2ccsc2)CCSC1` (centres undefined), the cytotoxicity at 70.5 h is -13%.
Regarding `CC(C)OCCCNC(=O)CN(c1ccc(F)c(F)c1)S(C)(=O)=O`, the cytotoxicity at 70.5 h is -6.87%.
For the compound `Clc1cnccc1N1CCC(OC2CCOCC2)CC1`, the cytotoxicity at 70.5 h is -1.59%.
Consider `CCCNC(=O)C1(CC2CC(c3ccccc3OC)=NO2)CCOCC1` (centres undefined), for which the cytotoxicity at 70.5 h worked out at 6.7%.
Turning to `Cc1nc(Cn2cnc3c(c(Br)nn3C)c2=O)cs1`, the cytotoxicity at 70.5 h was 11.6%.
For `O=C(c1ccco1)N1CCC2(CCCN(c3ncccn3)C2)C1` (centres undefined), the cytotoxicity at 70.5 h came out at 11%.
The figure for `N#CCc1ccc(OCC(=O)NS(=O)(=O)c2ccc(Br)s2)cc1` is 4.36%.
In the case of `Cc1ncsc1CCN(C)C(=O)c1ncccc1O`, the cytotoxicity at 70.5 h is -7.99%.
Then `Cc1ccccc1N1CCN(C2CCCN(C(=O)CCC(C)C)C2)CC1` (centres undefined), with -0.359%; and `CC(C)(C)OC(=O)NCC1CCCCN1Cc1ccccn1` (centres undefined), with 1.05%; and `COc1c(C2CCCN2C(=O)c2ccc(N(C)C)nn2)c(C)nn1C` (centres undefined), with -8.95%.
With `COCCNC(=O)Cn1cc2c(n1)c(C)nn2C`, the cytotoxicity at 70.5 h was -9.77%.
Regarding `Clc1ccc(OCCNCCn2cccn2)cc1`, the cytotoxicity at 70.5 h was determined as 22.1%.
For the compound `CCCc1noc(CN(C)C(=O)C2COc3ccccc3C2)n1` (centres undefined), the cytotoxicity at 70.5 h was -16.1%.
As to `Cc1nc(CN2CCCN(C(=O)c3sccc3C#N)CC2)cs1`, the cytotoxicity at 70.5 h was 0.736%.
The figure for `Cn1nnc2c(N3CC(C(=O)NCc4cccs4)C3)ncnc21` is -1.73%; for `Cc1nc[nH]c1CN1C[C@@H]2CC[C@H](C1)N(C(=O)CCc1cnn(C)c1)C2` it is -1.54%; for `CN(CCCc1cnn(C)c1)C(=O)Nc1cccc2[nH]nnc12` it is -7.81%.
With `Cc1c(CC(=O)N2CCSCC2)nnn1-c1cccc(Cl)c1`, the cytotoxicity at 70.5 h was found to be 23.4%.
As for `CC(=O)NCCC(=O)NCc1ccc(Br)cc1Cl`, the cytotoxicity at 70.5 h is -0.899%.
As to `COC(=O)CCC(=O)N1CCC2(CN(Cc3cccc(F)c3)C2)C1`, the cytotoxicity at 70.5 h amounted to 0.281%.
Then `CCS(=O)(=O)c1ccc(N2CCC(NC(=O)C(C)SC)CC2)cc1` (centres undefined), with -6.83%; and `Cc1ccc(NCCCc2c(C)noc2C)nn1`, with -6.84%; and `NC(=O)CN(CC(=O)NCc1cc(F)cc(F)c1)C1CCCC1`, with -10.9%.
On to `Cc1ccc(S(=O)(=O)N2C[C@H]3C[C@H](NC(=O)C(C)C)[C@H]3C2)cc1`, for which the cytotoxicity at 70.5 h came out at 20.3%.
For `COc1ccc(CN2C[C@@H]3OCCN(CCN(C)C)[C@@H]3C2)cc1`, the cytotoxicity at 70.5 h was -3.2%.
The figure for `CN(C)CCN1CCCC12CCN(C(=O)c1ccco1)CC2` is -6.82%; for `COCCN(C)C[C@@H]1CN(C(=O)c2cccc(Cl)c2)C[C@@H]1CO` it is -13.7%; for `Cc1noc2ncc(C(=O)N3CCCC(n4cccn4)C3)cc12` (centres undefined) it is -2.98%.
As to `COCC1CCN(S(=O)(=O)N2C[C@@H](C)[C@@](C)(O)C2)CC1`, the cytotoxicity at 70.5 h is -0.99%.
In the case of `CC1(c2ncc(CN3CCOCC3)cn2)CCCCO1` (centres undefined), the cytotoxicity at 70.5 h is -1.05%.
On to `Cc1ncsc1C(=O)N1CC[C@@]2(O)CCN(C(=O)N3CCCC3)C[C@H]2C1`, for which the cytotoxicity at 70.5 h was found to be 12.8%.
On to `CN(C)C(=O)c1csc(-c2ccoc2)n1`, for which the cytotoxicity at 70.5 h turned out to be 27.9%.
For the compound `Cc1cccnc1CNC(=O)CC1C(=O)NCCN1CC(C)(C)C` (centres undefined), the cytotoxicity at 70.5 h is -10.2%.
For `CCC(C)C(=O)Nc1ccc2oc(=O)n(CCN(C)C)c2c1` (centres undefined), the cytotoxicity at 70.5 h was -1.79%.
The figure for `O=C(NC1CC1)N1CCCC2(CCNC2=O)C1` (centres undefined) is -3.68%; for `CN1CCC(Cc2noc(-c3cccc4c3OCC4)n2)CC1` it is -8.69%; for `Cc1ccc(Sc2ccc(CN3CCC4(CCCNC4=O)C3)o2)cc1` (centres undefined) it is 5.69%.
`CCn1cnnc1CNC(=O)N1CCC(C)CC1`: the cytotoxicity at 70.5 h amounted to 16.5%.
Then `O=C(NCCCN1CCCC1=O)Nc1ccc(Br)cc1Cl`, with -3.68%.
Take `Cc1ccc2nc(C)c(C)c(C(=O)N3CCN(c4nccs4)CC3)c2c1`: the cytotoxicity at 70.5 h is -7.96%.
The figure for `COc1ccc(NC(=O)NC(C)Cn2cccn2)cn1` (centres undefined) is -11.6%.
Turning to `COC1COC2(CCN(C(=O)c3cocn3)CC2)C1` (centres undefined), the cytotoxicity at 70.5 h was -8.06%.
With `COc1ccccc1N1CCN(c2nc(N)nc3[nH]cnc23)CC1`, the cytotoxicity at 70.5 h was -11.3%.
For `O=C(NCCN1CCCC(CO)C1)c1ccc2sccc2c1` (centres undefined), the cytotoxicity at 70.5 h was -6.22%.
For `CCC(C)NC(=O)Nc1cccc(OCC#N)c1` (centres undefined), the cytotoxicity at 70.5 h was -12.4%.
As to `COC(C)c1noc(CN(C)c2nccnc2C#N)n1` (centres undefined), the cytotoxicity at 70.5 h came out at 1.72%.
For the compound `CCOc1nnc(CN(C)C2CCCN(c3cccnn3)C2)s1` (centres undefined), the cytotoxicity at 70.5 h was determined as 3.52%.
In the case of `CC1CCCN(Cc2c(C3CC3)n(CC(=O)N(C)C)c3ncccc23)C1` (centres undefined), the cytotoxicity at 70.5 h is 27.3%.
Then `CC1CCC2(CC1)Nc1ccccc1CO2` (centres undefined), with 15.1%; and `COc1cccc(S(=O)(=O)CCNC2CCc3ncnn3C2)c1` (centres undefined), with -4.52%.
The figure for `CCS(=O)(=O)N1C[C@@H](O)[C@H](N(C)Cc2ccc(F)cc2)C1` is 0.693%; for `CCO[C@@H]1CO[C@@]2(CCCN(Cc3scnc3C)C2)C1` it is -11.1%.
As for `CCc1cccc(N2CCC(NC(=O)c3ccc(=O)[nH]n3)CC2)c1`, the cytotoxicity at 70.5 h was -0.843%.
As for `Cc1ccc2cc(CN(C)Cc3ccncn3)c(=O)[nH]c2c1`, the cytotoxicity at 70.5 h was -13.2%.
Then `Cc1nn(C)cc1CN1CCc2nc3sccc3c(=O)n2CC1`, with -9.47%.
For `Cc1cc2cc(C(=O)N3C[C@H](O)[C@]4(CCCO4)C3)ccc2o1`, the cytotoxicity at 70.5 h is -2.18%.
For `Cc1ncsc1CCCNC(=O)C1CC2(CCNCC2)CN1C` (centres undefined), the cytotoxicity at 70.5 h came out at 13%.
On to `CS(=O)(=O)N[C@H]1CCO[C@]2(CCN(CC3CCOCC3)C2)C1`, for which the cytotoxicity at 70.5 h is -11.1%.
As to `Cn1ccnc1CN1CCC(CNS(=O)(=O)c2cccnc2)C1` (centres undefined), the cytotoxicity at 70.5 h was determined as 7.54%.
As to `CO[C@@H]1CCN(Cc2cccc(C)n2)[C@@H]2CN(Cc3ccncc3)C[C@@H]21`, the cytotoxicity at 70.5 h was -1.88%.
`Cn1nc2c(cc1=O)CN(CC(=O)NC1CCCCNC1=O)CC2` (centres undefined): the cytotoxicity at 70.5 h was 12.7%.
`Cc1cc(C)c(CNc2ncnc3ccccc23)c(=O)[nH]1`: the cytotoxicity at 70.5 h is -2.78%.
As to `O=C(CCc1nc(C2CC2)no1)c1ccc2c(c1)OCCO2`, the cytotoxicity at 70.5 h was -16.9%.
In the case of `CC(C)(C)c1nnc(NCC(=O)N2CCc3sccc3C2)s1`, the cytotoxicity at 70.5 h was -10.5%.
For the compound `Cc1ccc(N2CCCC(N3CCC(CO)CC3)C2=O)cc1` (centres undefined), the cytotoxicity at 70.5 h is 12.9%.
